The values below come from US8765786B2, “1-substituted indazole derivative” (Dainippon Sumitomo Pharma Co., Ltd., priority 2012, dated 2014).

Series [1] in a line: Measurement of brain penetration. The note with it: LC-MS/MS of plasma and brain homogenates; for Kp: read-out: concentration ratio of the brain to the plasma. Type of series: in vivo. From the text:
The plasma and brain homogenates were deproteinized with methanol and then centrifuged. The supernatant was filtered, and the obtained sample was quantified with LC-MS/MS to calculate the concentration of the plasma and brain.

A further series in a line: Rat PK test. Type of series: in vivo. The note with it: plasma, rats, intravenous and oral administration. Here is the method:
The present compound was administered intravenously in saline solution or orally in methylcellulose solution to 7 weeks old rats, and their blood was collected according to the following schedule:
(intravenous administration) 5 minutes, 15 minutes, 30 minutes, 1 hour, 2 hours, 4 hours, 6 hours and 24 hours after the administration
(oral administration) 15 minutes, 30 minutes, 1 hour, 2 hours, 4 hours, 6 hours and 24 hours after the administration
The collected blood was centrifuged at 3000 rpm for 10 minutes in a refrigerated centrifuge set at 4° C. The obtained plasma was measured with a HPLC to give a time curve of plasma level, thereby calculating the pharmacokinetic parameters.

Another series concerns the target T1, human α7 nAChR (Homo sapiens, UniProt P36544).
T1 construct: expressed in transfected cells; host or cells: GH4C1 cells derived from rat pituitary (ATCC CCL-82.2)
The series can be described thus: Evaluation of PAM activity with human α7 nACh receptor stably expressing cells (aequorin luminescence, FDSS7000). Particulars: test compound 10 μmol/L, ACh added at EC20, ratio of RLU (Max-Min) of test wells to control wells; for activity at 10 µM: read-out: α7PAM (%) @ 10 μmol/L. In kind it is cell-based. In outline:
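Rat pituitary GH4C1 cells stably expressing human α7 nAChR and aequorin, loaded 4 h at room temperature with 4 μmol/L substrate, in Hanks/20 mM HEPES pH 7.4. After compound then ACh addition, 465 nm luminescence recorded 138 s; PAM activity is RLU (Max-Min) ratio to control wells.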

The target in series [2] is T2, hERG (human ether-a-go-go) potassium current (Homo sapiens, UniProt Q12809).
T2 construct: expressed in transfected cells; host or cells: CHO cells
T2 sequence (Q12809 whole entry): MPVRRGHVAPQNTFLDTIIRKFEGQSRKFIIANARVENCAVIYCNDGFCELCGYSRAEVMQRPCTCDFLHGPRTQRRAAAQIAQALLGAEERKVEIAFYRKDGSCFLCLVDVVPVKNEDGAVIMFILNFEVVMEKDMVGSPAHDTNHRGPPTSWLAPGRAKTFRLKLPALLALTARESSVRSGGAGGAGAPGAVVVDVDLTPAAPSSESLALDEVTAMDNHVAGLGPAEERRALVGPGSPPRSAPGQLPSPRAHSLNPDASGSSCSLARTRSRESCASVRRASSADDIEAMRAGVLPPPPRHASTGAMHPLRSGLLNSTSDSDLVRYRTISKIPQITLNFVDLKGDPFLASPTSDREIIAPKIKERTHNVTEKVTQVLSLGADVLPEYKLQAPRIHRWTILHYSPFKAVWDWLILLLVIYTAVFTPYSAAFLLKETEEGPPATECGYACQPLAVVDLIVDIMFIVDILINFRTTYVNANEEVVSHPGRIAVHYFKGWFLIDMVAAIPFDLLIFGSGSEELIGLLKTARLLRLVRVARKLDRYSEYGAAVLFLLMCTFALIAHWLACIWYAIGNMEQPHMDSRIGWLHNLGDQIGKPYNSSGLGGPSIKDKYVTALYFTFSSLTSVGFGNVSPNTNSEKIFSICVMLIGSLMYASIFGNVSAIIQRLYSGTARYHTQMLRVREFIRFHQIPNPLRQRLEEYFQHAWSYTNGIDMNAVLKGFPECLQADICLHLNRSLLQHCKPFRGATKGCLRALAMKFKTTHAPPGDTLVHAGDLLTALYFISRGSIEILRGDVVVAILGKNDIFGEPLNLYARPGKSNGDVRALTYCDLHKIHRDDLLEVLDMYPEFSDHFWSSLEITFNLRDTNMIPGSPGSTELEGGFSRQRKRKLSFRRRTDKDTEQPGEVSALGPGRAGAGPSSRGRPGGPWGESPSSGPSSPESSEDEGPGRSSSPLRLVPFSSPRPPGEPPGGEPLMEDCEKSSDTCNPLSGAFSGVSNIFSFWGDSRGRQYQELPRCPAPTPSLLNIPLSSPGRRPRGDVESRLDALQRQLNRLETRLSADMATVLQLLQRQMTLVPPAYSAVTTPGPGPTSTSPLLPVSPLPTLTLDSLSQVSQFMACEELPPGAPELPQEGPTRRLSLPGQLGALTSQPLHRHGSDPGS
Description: hERG inhibition test (whole-cell patch clamp, QPatch HT, CHO cells). In kind it is cell-based. Particulars: room temperature. Here is the method: The hERG (human ether-a-go-go) potassium current in CHO cells which stably express hERG gene was recorded by whole-cell patch clamping technique using an automated patch clamp system, QPatch HT (Sophion Bioscience A/S). Inducing the hERG current, the membrane potential was held at −80 mV in voltage clamp mode, and then depolarized to −50 mV for 20 msec and then +20 mV for 5 sec. Then, the membrane potential was repolarized to −50 mV for 5 sec and the tail current amplitude was measured. The stimulation was given at a frequency of every 15 seconds, and the experiment was carried out at room temperature (22±2° C.) The compound was cumulatively administered to each cell in 4 concentrations, wherein the administration was done over 5 minutes in each concentration. The inhibition percentage of the inhibited current was calculated by comparing the current intensities before and after the compound was given in each concentration. According to Hill equation, each 50% inhibitory concentration was calculated (IC50 [μmol/L]). The test solutions used herein were as follows: extracellular solution (mmol/L): 2 CaCl2, 1 MgCl2, 10 HEPES, 4 KCl, 145 NaCl, 10 glucose,
intracellular solution (mmol/L): […], 1.8 MgCl2, 10 HEPES, 31 KOH, 10 EGTA, 120 KCl, 4 ATP

In another series the test system is Slc: Wistar rats. The series can be described thus: Y-shaped maze test in rats, scopolamine-induced cognitive impairment. In kind it is in vivo. The note with it: 0.6 mg/kg scopolamine HBr s.c. Here is the method: In Y-maze test, 0.6 mg/kg scopolamine HBr (cat#S0929, Sigma Aldrich, Japan) can be subcutaneously administered to Slc: Wistar rats (280 g to 300 g, male, Japan SLC) to cause cognitive impairment and decrease the percentage of alternation behavior. According to the test mechanism, the present compounds were treated prior to the administration of scopolamine, and the improvement effect on cognitive impairment was evaluated.

The subject of the next series is Slc: ddY mice. The series can be described thus: Novel object recognition test in mice (mORT). Type of series: in vivo. Particulars: for minimum effective dose: administered prior to 1st trial, 2nd trial 24 hours later; for efficacy at higher doses: dose of 0.3 mg/kg, 1.0 mg/kg or 3 mg/kg. Here is the method:
Slc: ddY mice (25 g to 30 g, male, Japan SLC) can be used in the novel object recognition test wherein the interval between the 1st trial (training) and the 2nd trial (test) correlates with the memory loss for the objects used in the 1st trial, and a significant memory-loss is observed when the 2nd trial is performed 24 hours after the 1st trial. According to the test mechanism, the present compounds were administered prior to the 1st trial, and the enhancement effect on memory in the 2nd trial was evaluated.

Series [3] can be described thus: Measurement of protein binding ratio (equilibrium dialysis). In kind it is in vitro ADME, human.

T1 sequence (P36544 23-502): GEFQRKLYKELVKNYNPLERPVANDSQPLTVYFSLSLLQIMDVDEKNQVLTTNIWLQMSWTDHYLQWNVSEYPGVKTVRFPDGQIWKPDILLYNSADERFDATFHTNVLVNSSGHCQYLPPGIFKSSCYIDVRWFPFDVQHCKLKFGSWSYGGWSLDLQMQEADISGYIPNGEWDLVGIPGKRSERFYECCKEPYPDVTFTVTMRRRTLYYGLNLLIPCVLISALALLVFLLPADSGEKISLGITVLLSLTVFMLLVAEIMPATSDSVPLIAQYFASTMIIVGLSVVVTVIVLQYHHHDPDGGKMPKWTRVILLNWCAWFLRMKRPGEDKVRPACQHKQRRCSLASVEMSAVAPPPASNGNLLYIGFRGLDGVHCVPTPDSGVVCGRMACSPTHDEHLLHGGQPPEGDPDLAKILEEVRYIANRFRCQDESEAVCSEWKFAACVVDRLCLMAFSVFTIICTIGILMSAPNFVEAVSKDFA

Turning to `CO[C@H]1CC[C@H](NC(=O)N2CCC(n3ncc4cc(C(F)(F)F)ccc43)CC2)CC1` [Example 163, N-(trans-4-methoxycyclohexyl)-4-[5-(trifluoromethyl)-1H-indazol-1-yl]piperidine-1-carboxamide], in series [1], the Kp was determined as 2.01. In “Rat PK test”, this compound returned a bioavailability of 41%. Also, the activity at 10 µM at human α7 nAChR is 318%.
On to `COc1nn(C2CCN(C(=O)NC3CCCCC3)CC2)c2ccc(C)cc12` [Example 258], for which the IC50 in series [2] was determined as 47.3 µM. Further, in series [1], the “concentration ratio of the brain to the plasma” value is listed as 1.55. For the same compound, the “α7PAM (%) @ 10 μmol/L” value on human α7 nAChR is 941%.
Take `O=C(NC1CCOCC1)N1CCC(n2ncc3cc(OC(F)(F)F)ccc32)CC1` [Example 227, N-(tetrahydro-2H-pyran-4-yl)-4-[5-(trifluoromethoxy)-1H-indazol-1-yl]piperidine-1-carboxamide]: the Kp in series [1] was 1.92. Further, the bioavailability in the series “Rat PK test” was 69%. Moreover, the activity at 10 µM at human α7 nAChR stood at 768%.
With `CCc1ccc2c(c1)c(OC(C)C)nn2C1CCN(C(=O)NC2CCOCC2)CC1` [Example 63, 4-(5-ethyl-3-isopropoxy-1H-indazol-1-yl)-N-(tetrahydro-2H-pyran-4-yl)piperidine-1-carboxamide], in the series with Slc: Wistar rats, the “dose from which a tendency to improve cognitive function was shown” value was determined as 0.3 mg/kg. This compound came in with a 50% inhibitory concentration (IC50) in series [2] greater than 10 µM. Further, the activity at 10 µM on human α7 nAChR turned out to be 358%. For the same compound, the “dose at which efficacy was shown” value in the series on Slc: ddY mice is 3 mg/kg.
With `CO[C@H]1CC[C@H](NC(=O)N2CCC(n3ncc4cc(C)ccc43)CC2)CC1` [Example 1, N-(trans-4-methoxycyclohexyl)-4-(5-methyl-1H-indazol-1-yl)piperidine-1-carboxamide], the “protein binding ratio in the brain” value in series [3] (brain) came to 91.9%. The “protein binding ratio in the plasma” value in series [3] (plasma) was determined as 84.7%. The “dose from which cognitive function was significantly improved” value with Slc: Wistar rats worked out at 0.3 mg/kg. Further, in series [2], the IC50 was 84.3 µM. The Kp in series [1] stood at 1.27. This compound also gave a bioavailability in the series “Rat PK test” of 41%. In the series with Slc: ddY mice, the minimum effective dose worked out at 0.1 mg/kg and the “efficacy at higher doses” value is “efficacy did not decrease”.
Turning to `CO[C@H]1CC[C@H](NC(=O)N2CCC(n3ncc4cc(C5CC5)ccc43)CC2)CC1` [Example 74, 4-(5-cyclopropyl-1H-indazol-1-yl)-N-(trans-4-methoxycyclohexyl)piperidine-1-carboxamide], in the series with Slc: Wistar rats, the “dose from which cognitive function was significantly improved” value is 0.3 mg/kg. In series [2], this compound showed an IC50 of 13.2 µM. In the series on Slc: ddY mice, the minimum effective dose stood at 0.1 mg/kg and the “efficacy at higher doses” value is on record as “efficacy did not decrease”.
In the case of `CCc1cccc2c1cnn2C1CCN(C(=O)N[C@H]2CC[C@H](OC)CC2)CC1` [Example 66, 4-(4-ethyl-1H-indazol-1-yl)-N-(trans-4-methoxycyclohexyl)piperidine-1-carboxamide], at human α7 nAChR, the activity at 10 µM amounted to 466%. In addition, the “dose at which efficacy was shown” value in the series with Slc: ddY mice stood at 1 mg/kg.
Regarding `O=C(NC1CC1)N1CCC(n2ncc3cc(C4CC4)ccc32)CC1` [Example 176], the “α7PAM (%) @ 10 μmol/L” value at human α7 nAChR is reported as 187%.
For the compound `CCc1ccc2c(cnn2C2CCN(C(=O)NC3CCOCC3)CC2)c1` [Example 24], at human α7 nAChR, the “α7PAM (%) @ 10 μmol/L” value is 745%.
For the compound `Cc1ccc2c(c1)c(C1CCOCC1)nn2C1CCN(C(=O)NC2CCC(F)(F)CC2)CC1` [Example 52, N-(4,4-difluorocyclohexyl)-4-(5-methyl-3-(tetrahydro-2H-pyran-4-yl)-1H-indazol-1-yl)piperidine-1-carboxamide], at human α7 nAChR, the activity at 10 µM stood at 366%.
